Marks after values point to notes of the source that are not given here.
Tests used:
Format in all cases: in vivo
Settings in all cases: 100 = 100% disease control
Septoria nodorum = experiment: Test F: wheat glume blotch on wheat seedlings, sprayed the day before inoculation, visual disease rating
Procedure, shortened: (§1)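 Compounds were dissolved in acetone (3% of final volume), then suspended in 50/50 acetone/water with 250 ppm Trem 014 surfactant and sprayed to run-off on test plants. A 200 ppm suspension equals 500 g/ha. Ratings are at 200 ppm unless flagged as 40 ppm.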

[1] = tested on: Puccinia recondita f. sp. tritici; experiment: Test I: wheat leaf rust on wheat seedlings, sprayed the day before inoculation, visual disease rating
Procedure, shortened: as §1

Septoria tritici = experiment: Test G: wheat leaf blotch on wheat seedlings, sprayed the day before inoculation, visual disease rating
Procedure, shortened: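 Wheat seedlings were sprayed to run-off with test suspension (acetone/water plus surfactant), generally 200 ppm (≈500 g/ha), or 40 ppm where marked. Septoria tritici spores were inoculated the next day; plants were held 48 h at 24°C in saturated atmosphere, then 19 days at 20°C before visual disease rating.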

Botrytis cinerea = experiment: Test C: tomato Botrytis on tomato seedlings, sprayed the day before inoculation, visual disease rating
Procedure, shortened: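 Tomato seedlings sprayed to run-off with compound suspended in acetone/water with 250 ppm Trem 014 surfactant, at 200 ppm (≈500 g/ha) or 40 ppm where marked, one day before Botrytis cinerea inoculation. Disease rated visually.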

Alternaria solani = experiment: Test D: tomato early blight, sprayed the day before inoculation, visual disease rating
Procedure, shortened: as §1

[2] = tested on: Puccinia recondita f. sp. tritici; experiment: Test H: wheat leaf rust, test suspension sprayed after inoculation of wheat seedlings, visual disease rating
Procedure, shortened: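 Wheat seedlings inoculated with P. recondita spores, held 24 h saturated at 20 °C, then 2 days in growth chamber at 20 °C; compound suspension (acetone/water with Trem 014) sprayed to run-off afterwards. Rated visually; 200 ppm (≈500 g/ha) unless marked *, which denotes 40 ppm.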

[3] = tested on: Erysiphe graminis f. sp. tritici; experiment: Test J: wheat powdery mildew on wheat seedlings, sprayed the day before inoculation, visual disease rating
Procedure, shortened: as §1

[4] = 200 ppm, 0 = no control relative to controls
[5] = 40 ppm (marked *), 0 = no control

Compound | Test F disease control rating (Septoria nodorum; [4]) | Test I disease control rating [1, 4] | Test G disease control rating (Septoria tritici; [4]) | Test C disease control rating (Botrytis cinerea; [4]) | Test D disease control rating (Alternaria solani; [4]) | Test H disease control rating [2, 4] | Test J disease control rating [3, 4] | other results
COc1cc(F)c(-n2c(Cl)nc(C)c2-c2ccc(C)cc2)c(F)c1 [compound 564] |  |  |  |  |  |  |  | Test F disease control rating (Septoria nodorum; 40 ppm (marked *)): 64* %; Test I disease control rating ([1]; 40 ppm (marked *)): 100* %; Test G disease control rating (Septoria tritici; 40 ppm (marked *)): 99* %; Test C disease control rating (Botrytis cinerea; 40 ppm (marked *)): 99* %; Test D disease control rating (Alternaria solani; 40 ppm (marked *)): 100* %; Test H disease control rating ([2]; 40 ppm (marked *)): 66* %; Test J disease control rating ([3]; 40 ppm (marked *)): 100* %
Cc1nc(Cl)c(-c2c(F)cccc2F)n1-c1ccc(SCCl)cc1 [compound 529] | 0% | 48% | 82% | 0% | 0% | 9% | 0% | 
COc1cc(F)c(-n2c(Cl)nc(CCl)c2-c2cccc(F)c2)c(F)c1 [compound 712] |  |  | 95% |  |  |  |  | Test F disease control rating (Septoria nodorum; 40 ppm (marked *)): 0* %; Test I disease control rating ([1]; 40 ppm (marked *)): 86* %; Test C disease control rating (Botrytis cinerea; 40 ppm (marked *)): 100* %; Test D disease control rating (Alternaria solani; 40 ppm (marked *)): 57* %; Test H disease control rating ([2]; 40 ppm (marked *)): 7* %; Test J disease control rating ([3]; 40 ppm (marked *)): 61* %
COc1ccc(F)c(-c2c(Br)nc(Br)n2-c2ccc(F)cc2)c1F [Compound 504, 2,4-dibromo-5-(2,6-difluoro-3-methoxyphenyl)-1-(4-fluorophenyl)-1H-imidazole] |  |  |  |  |  |  |  | pest or weed control at 200 ppm (Septoria nodorum; Parastagonospora nodorum, 264 h, 200 ppm, 0 = no control relative to controls): 100%; pest or weed control at 200 ppm ([1]; Puccinia recondita, 168 h, 200 ppm, 0 = no control relative to controls): 99%; pest or weed control at 200 ppm (Septoria tritici; Zymoseptoria tritici, 504 h, 200 ppm, 0 = no control relative to controls): 97%; pest or weed control at 200 ppm (Botrytis cinerea; Botrytis cinerea, 120 h, 200 ppm, 0 = no control relative to controls): 99%; pest or weed control at 200 ppm (Alternaria solani; Alternaria solani, 168 h, 200 ppm, 0 = no control relative to controls): 100%; pest or weed control at 200 ppm ([2]; Puccinia recondita, 96 h, 200 ppm, 0 = no control relative to controls): 0%; pest or weed control at 200 ppm ([3]; Blumeria graminis, 168 h, 200 ppm, 0 = no control relative to controls): 100%
Fc1ccc(-n2c(Br)nc(Br)c2-c2c(F)ccc(F)c2F)cc1 [compound 384] |  |  |  |  |  |  |  | Test F disease control rating (Septoria nodorum; [5]): 0* %; Test I disease control rating [1, 5]: 67* %; Test G disease control rating (Septoria tritici; [5]): 95* %; Test C disease control rating (Botrytis cinerea; [5]): 100* %; Test D disease control rating (Alternaria solani; [5]): 99* %; Test H disease control rating [2, 5]: 0* %; Test J disease control rating [3, 5]: 95* %
N#Cc1ccc(F)c(-c2c(Cl)nc(Cl)n2-c2ccc(Cl)nc2)c1F [compound 691] |  |  |  |  |  |  |  | Test F disease control rating (Septoria nodorum; 40 ppm (marked *)): 51* %; Test I disease control rating ([1]; 40 ppm (marked *)): 82* %; Test G disease control rating (Septoria tritici; 40 ppm (marked *)): 95* %; Test C disease control rating (Botrytis cinerea; 40 ppm (marked *)): 99* %; Test D disease control rating (Alternaria solani; 40 ppm (marked *)): 99* %; Test H disease control rating ([2]; 40 ppm (marked *)): 39* %; Test J disease control rating ([3]; 40 ppm (marked *)): 64* %
Cc1ccc(-n2c(C)nc(C)c2-c2c(F)ccc(F)c2Cl)cc1 [compound 493] |  |  |  |  |  |  |  | Test F disease control rating (Septoria nodorum; 40 ppm (marked *)): 0* %; Test I disease control rating ([1]; 40 ppm (marked *)): 97* %; Test G disease control rating (Septoria tritici; 40 ppm (marked *)): 93* %; Test C disease control rating (Botrytis cinerea; 40 ppm (marked *)): 96* %; Test D disease control rating (Alternaria solani; 40 ppm (marked *)): 99* %; Test H disease control rating ([2]; 40 ppm (marked *)): 0* %; Test J disease control rating ([3]; 40 ppm (marked *)): 99* %
COc1cc(F)c(-c2c(Cl)nc(Br)n2Cc2ccc(Cl)cc2)c(F)c1 [compound 283] |  |  |  |  |  |  |  | Test F disease control rating (Septoria nodorum; 200 ppm, 0 = no control): 0%; Test I disease control rating ([1]; 200 ppm, 0 = no control): 93%; Test G disease control rating (Septoria tritici; 200 ppm, 0 = no control): 93%; Test C disease control rating (Botrytis cinerea; 200 ppm, 0 = no control): 100%; Test D disease control rating (Alternaria solani; 200 ppm, 0 = no control): 98%; Test H disease control rating ([2]; 200 ppm, 0 = no control): 0%; Test J disease control rating ([3]; 200 ppm, 0 = no control): 99%
Fc1ccc(F)c(-c2c(Cl)ncn2Cc2ccc(Cl)cc2)c1F [compound 266] |  |  |  |  |  |  |  | Test F disease control rating (Septoria nodorum; 200 ppm, 0 = no control): 97%; Test I disease control rating ([1]; 200 ppm, 0 = no control): 99%; Test G disease control rating (Septoria tritici; 200 ppm, 0 = no control): 94%; Test C disease control rating (Botrytis cinerea; 200 ppm, 0 = no control): 100%; Test D disease control rating (Alternaria solani; 200 ppm, 0 = no control): 100%; Test H disease control rating ([2]; 200 ppm, 0 = no control): 98%; Test J disease control rating ([3]; 200 ppm, 0 = no control): 99%
Clc1ccc(-c2c(Cl)ncn2Cc2cccc(Cl)c2)cc1 [compound 272] |  |  |  |  |  |  |  | Test F disease control rating (Septoria nodorum; 200 ppm, 0 = no control): 0%; Test I disease control rating ([1]; 200 ppm, 0 = no control): 55%; Test G disease control rating (Septoria tritici; 200 ppm, 0 = no control): 91%; Test C disease control rating (Botrytis cinerea; 200 ppm, 0 = no control): 64%; Test D disease control rating (Alternaria solani; 200 ppm, 0 = no control): 0%; Test H disease control rating ([2]; 200 ppm, 0 = no control): 17%; Test J disease control rating ([3]; 200 ppm, 0 = no control): 0%
COc1cc(F)c(-c2c(Cl)nc(C)n2-c2cccc(Cl)c2)c(F)c1 [compound 500] | 100% | 100% | 94% | 98% | 100% | 98% | 100% | 
COc1cc(F)c(-c2c(Cl)nc(Cl)n2-c2ccc(OC(F)(F)F)cc2)c(F)c1 [compound 568] | 98% | 100% | 94% | 99% | 100% | 72% | 100% | 
CCOc1ccc(F)c(-c2c(Cl)ncn2-c2ccc(Cl)cc2)c1F [compound 660] | 82% | 92% | 100% | 100% | 98% | 9% | 100% | 
Cc1ccc(-n2c(C)nc(Cl)c2-c2c(F)cc(OC(F)F)cc2F)cc1 [compound 631] | 0% | 99% | 100% | 99% | 99% | 40% | 100% | 
CCc1ccc(-n2c(C)nc(Cl)c2-c2c(F)ccc(OC)c2F)cc1 [compound 479] | 95% | 99% | 94% | 100% | 100% | 0% | 100% | 
COc1ccc(F)c(-c2c(Cl)nc(C)n2-c2ccc(Cl)nc2)c1F [compound 738] | 100% | 100% | 100% | 100% | 100% | 96% | 100% | 
COc1cc(F)c(-c2c(Cl)nc(Cl)n2-c2cccnc2OC)c(F)c1 [compound 676] | 99% | 100% | 99% | 100% | 99% | 99% | 98% | 
COc1cc(F)c(-c2c(Cl)nc(Br)n2-c2ccc(C)cc2F)c(F)c1 [compound 654] |  |  |  |  |  |  |  | Test F disease control rating (Septoria nodorum; 40 ppm (marked *)): 91* %; Test I disease control rating ([1]; 40 ppm (marked *)): 99* %; Test G disease control rating (Septoria tritici; 40 ppm (marked *)): 98* %; Test C disease control rating (Botrytis cinerea; 40 ppm (marked *)): 100* %; Test D disease control rating (Alternaria solani; 40 ppm (marked *)): 99* %; Test H disease control rating ([2]; 40 ppm (marked *)): 100* %; Test J disease control rating ([3]; 40 ppm (marked *)): 100* %
Fc1cccc(-n2c(Br)nc(Cl)c2-c2c(F)ccc(F)c2F)c1 [compound 368] | 0% | 99% | 92% | 99% | 100% | 0% | 96% | 
Cc1nc(Cl)c(Cc2c(F)cc(F)cc2F)n1-c1ccc(Cl)cc1 [compound 531] | 0% | 99% | 99% | 100% | 0% | 41% | 95% | 
Fc1cc(-n2c(Cl)nc(Cl)c2-c2cccc(Br)n2)ccc1Cl [compound 433] | 0% | 0% | 92% | 50% | 0% | 0% | 0% | 
COc1cc(F)c(-c2c(Cl)nc(C)n2Cc2ccc(C)cc2)c(F)c1 [compound 296] |  |  |  |  |  |  |  | Test F disease control rating (Septoria nodorum; 200 ppm, 0 = no control): 86%; Test I disease control rating ([1]; 200 ppm, 0 = no control): 99%; Test G disease control rating (Septoria tritici; 200 ppm, 0 = no control): 96%; Test C disease control rating (Botrytis cinerea; 200 ppm, 0 = no control): 100%; Test D disease control rating (Alternaria solani; 200 ppm, 0 = no control): 96%; Test H disease control rating ([2]; 200 ppm, 0 = no control): 17%; Test J disease control rating ([3]; 200 ppm, 0 = no control): 97%
3-[4-[4-chloro-2-methyl-1-(4-methylphenyl)-1H-imidazol-5-yl]-3,5-difluorophenoxy]-N-methyl-1-propanamide hydrochloride [Compound 734] | 99% | 100% | 99% | 100% | 99% | 41% | 95% | 

Source: patent US20110045101A1, “FUNGICIDAL SUBSTITUTED AZOLES” (E.I. Du Pont De Nemours and Company, priority 2009, published 2011)
